According to patent US9879011B2, “Amorphous form of linagliptin and process for preparation thereof” (CADILA HEALTHCARE LIMITED, priority 2012, dated 2018):

Assay: storage stability of amorphous form (polymorphic form by x-ray powder diffraction)
Format: physicochemical
Settings: amorphous form dried under vacuum at about 50° C. to 70° C.; ordinary stability conditions (75% RH at 40° C. or 60% RH at 25° C.); no change in polymorphic form by XRPD
Protocol: The obtained linagliptin may be dried under vacuum at about 50° C. to 70° C. for 6-12 hours to get amorphous form substantially free from residual solvents. Thus obtained amorphous linagliptin is stable under ordinary stability conditions at least for 3 months and doesn't change to crystalline form.
The stable amorphous form of linagliptin may be stored under nitrogen atmosphere and packed in a double polythene bag tied with a thread, keeping primary packing containing amorphous linagliptin inside a black color polyethylene bag containing oxygen busters and sealing it, placing above the double polyethylene bag inside a triple laminated bag optionally containing oxygen busters and sealing it, and placing the sealed triple laminated bag inside a closed high density polyethylene (HDPE) container and storing in controlled environment chamber at about 25° C. and/or 40° C.
The X-ray powder diffraction spectrum was measured under the following experimental conditions: • Instrument: X-Ray Diffractometer, D/Max-2200/PC Make: Rigaku, Japan. • X-Ray: Cu/40 kv/40 mA • Diverging: 10 • Scattering Slit: 10 • Receiving Slit: 0.15 mm • Monochromator RS: 0.8 mm • Counter: Scintillation Counter • Scan Mode: Continuous • Scan Speed: 3.0000/Min • Sampling Width: 0.020 • Scan Axes: Two Theta/Theta • Scan Range: 2.0000 to 40.0000 • Theta Offset: 0.0000

For CC#CCn1c(N2CCC[C@@H](N)C2)nc2c1c(=O)n(Cc1nc(C)c3ccccc3n1)c(=O)n2C [amorphous linagliptin, 8-[(R)-3-aminopiperidin-1-yl]-7-(but-2-yn-1-yl)-3-methyl-1-[(4-methyl-quinazolin-2-yl)methyl]-3,7-dihydro-1H-purine-2,6-dione], the “stable under ordinary stability conditions, doesn't change to crystalline form” value was at least 3 months.
